According to patent US20260272878A1, “ADAR1 INHIBITORS AND USES THEREOF” (THE WISTAR INSTITUTE OF ANATOMY AND BIOLOGY, priority 2023, published 2026):
Entries after “also recorded” stand apart in the source; their conditions may differ.

How the values were obtained:
[1] = molecular target: T1, ADAR2 (Homo sapiens, UniProt P78563); experiment: Binding to ADAR2 (not shown)
T1 sequence (P78563 1-741): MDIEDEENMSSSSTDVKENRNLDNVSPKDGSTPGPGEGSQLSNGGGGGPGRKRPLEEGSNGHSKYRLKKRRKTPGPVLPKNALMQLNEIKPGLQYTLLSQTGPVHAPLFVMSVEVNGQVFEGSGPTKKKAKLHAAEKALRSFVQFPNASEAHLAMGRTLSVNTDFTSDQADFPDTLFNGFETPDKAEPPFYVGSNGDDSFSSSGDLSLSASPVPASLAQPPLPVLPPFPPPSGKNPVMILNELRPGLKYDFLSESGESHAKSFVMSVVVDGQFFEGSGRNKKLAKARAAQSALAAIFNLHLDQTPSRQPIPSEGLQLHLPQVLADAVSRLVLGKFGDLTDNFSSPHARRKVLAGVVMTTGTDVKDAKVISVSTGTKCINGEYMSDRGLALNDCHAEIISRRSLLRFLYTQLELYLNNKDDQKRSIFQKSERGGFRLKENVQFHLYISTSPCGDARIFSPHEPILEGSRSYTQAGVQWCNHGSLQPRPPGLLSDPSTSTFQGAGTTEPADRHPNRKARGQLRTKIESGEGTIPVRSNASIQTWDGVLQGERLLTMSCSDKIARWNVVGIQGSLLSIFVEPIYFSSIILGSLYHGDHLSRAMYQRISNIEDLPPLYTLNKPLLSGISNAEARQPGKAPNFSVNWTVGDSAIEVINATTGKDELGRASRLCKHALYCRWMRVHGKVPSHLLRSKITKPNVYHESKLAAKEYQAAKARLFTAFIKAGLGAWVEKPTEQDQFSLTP

[2] = test system: mouse melanoma; experiment: Subcutaneous mouse melanoma growth in B6 black mice; format: in vivo; settings: 4 treatments starting at Day 8, versus vehicle
Description: We inoculated mouse melanoma cells subcutaneously in B6 black mice. Then, starting at Day 8, we treated mice for 4 treatments of either vehicle only or ADAR1i-124 (FIG. 11A).

[3] = test system: ALT U2OS cells; experiment: Cell killing / viability, U2OS; format: cell-based
Method: FIGS. 8A-8C show analysis of ADAR1i-124 effects in cancer cells. […] Viability was examined using the Apo Tox-Glo assay system. Control, 0.3% DMSO. Data: mean±SD (n=3). Significant differences identified by two-tailed Student's t-tests: *P<0.05, n.s., not significant. (FIG. 8B) Western blotting analysis of HeLa cells treated with ADAR1i-124 (10 μM).
(§1) FIGS. 9A-9C show dose-dependent killing of cancer cells and activation of IFN signaling. […] YUMM1.7 (FIG. 9B) and HGS2 cells (FIG. 9C) were treated with ADAR1i-124 at 10 μM (12 hrs). RNA samples were analyzed by qRT-PCR to monitor ISG expression levels. Data: mean±SD (n=3). Significant differences were identified by two-tailed Student's t-tests: ***P<0.001.
(§2) Dose-dependent selective killing of telomerase reactivated cancer cells was determined (FIG. 9A).

[4] = test system: YUMM1.7 cells; experiment: qRT-PCR of ISG expression (IFN signaling), YUMM1.7; format: cell-based, mouse; settings: YUMM1.7, 10 μM, 12 hrs
Method: as §1, §2

[5] = test system: HeLa cells; experiment: Cell death mechanism, Annexin V apoptosis marker, HeLa; format: cell-based, human
Description: (§3) FIGS. 10A-10C show ADAR1i-124 kills cancer cells via different cell death mechanism. (FIG. 10A) Differential expression of ADAR1p150 and ADAR1p110 in cancer cells. […] Annexin V and pMLKL were used as apoptosis and necroptosis markers, respectively. At least 200 cells were examined. Data: mean±SD (n=3). Significant differences were identified by two tailed Student's t-tests: *P<0.05, n.s., not significant. […] We plan to evaluate ADAR1 inhibitors in vivo in mouse tumor model systems by using these mouse cancer cell lines.
(§4) Thus, ADAR1i-124 has the potential to act as a “two birds with one stone” cancer therapeutic.

[6] = test system: YUMM1.7; experiment: Dose-dependent killing, YUMM1.7; format: cell-based; settings: mouse non-ALT cancer cells
Method: as §1

[7] = Half-life in culture media by loss of cancer cell killing activity; format: in vitro ADME; settings: determined by loss of cancer cell killing activity (data not shown), read-out: t1/2 in the culture media (converted)
Description: We will modify ADAR1i-124 and derive ADAR1i-124 analogs with higher potency (higher affinity binding and lower IC50) ready to be tested for animal model studies (next section).

[8] = test system: YUMM1.7 cells; experiment: Cell death mechanism, pMLKL necroptosis marker, YUMM1.7; format: cell-based, mouse; settings: YUMM1.7, pMLKL marker
Description: as §3, §4

[9] = test system: Z-RNA; experiment: Z-RNA formation; format: cell-based
Description: FIGS. 7A-7C show analysis of ADAR1i-13 and analogs. […] IC50 values determined by dose-dependent in vitro editing assay are shown for ADAR1 inhibition positive compounds. […] Dumbbell-shaped dsRNA has been reported to form Z-RNA conformation and act as a strong IFN signaling activation triggers. ADAR1p150 mediated A-to-I editing suppresses Z-RNA structure transition and activation of IFN signaling.

[10] = test system: mouse melanoma and ovarian cancer cells; experiment: Killing of mouse melanoma and ovarian cancer cells (FIG. 10C); format: cell-based
Description: as §3

[11] = test system: human and mouse melanoma (telomerase reactivated) cell lines; experiment: Suppression of melanoma cell lines, comparison of inhibitors (not shown); format: cell-based
Method: as §2

[12] = test system: HSG2; experiment: Dose-dependent killing, HSG2; format: cell-based; settings: mouse non-ALT cancer cells
Method: as §1

[13] = test system: WM3000 PDX melanoma cell line; experiment: Dose-dependent killing, WM3000; format: cell-based; settings: human PDX melanoma cell line
Method: as §1
Treatments and analysis. The efficacy of ADAR1i alone or combining with αPD1 Ab for suppression of tumor growth will be assessed as described in the previous section (Aim 2-1). We have at our disposal the largest collection (>500) of clinically and genetically annotated melanoma PDX. […] We will use the human melanoma cell lines/PDXs in subcutaneous tumor assays in the hu-BLT mice. Human melanomas will be established in the hu-BLT mice and randomized into 4 treatment groups (n=5 per group): 1) ADAR1i alone, 2) αPD-1 Ab alone, 3) combination ADAR1i/αPD-1, 4) control IgG. Tumor volumes and overall survival will be determined as described in the previous section (Aim 2-1). Tumors will be biopsied and blood collected at interval periods (at EOT, e.g. 7 days, at TTR, and at EOS) and analyzed for hallmark melanoma features as above. […]

[14] = test system: HGS2 cells; experiment: qRT-PCR of ISG expression (IFN signaling), HGS2; format: cell-based, mouse; settings: HGS2, 10 μM, 12 hrs
Method: as §1

Compound | Binding to ADAR2 [1] | Growth of mouse melanomas in vivo [2] | Killing of U2OS cells [3] | ISG expression / IFN signaling activation [4] | Induction of apoptosis [5] | Killing of YUMM1.7 cells [6] | half-life [7] | Induction of necroptosis [8] | Z-RNA formation [9] | Killing of mouse melanoma and ovarian cancer cells [10] | Suppression of human and mouse melanoma cell lines relative to other inhibitors [11] | Killing of HSG2 cells [12] | Killing of WM3000 cells [13] | ISG expression / IFN signaling activation [14]
N#Cc1ccc(NC(=O)c2sc3ccccc3c2Cl)cc1 [ADAR1i-13, 3-chloro-N-(4-cyanophenyl)-1-benzothiophene-2-carboxamide] | bound also to ADAR2 |  |  |  |  |  |  |  |  |  |  |  |  | 
N#Cc1ccc(NC(=O)c2c(Cl)c3ccccc3n2CO)cc1 [ADAR1i-124] | bound also to ADAR2 | significantly suppressed growth of mouse melanomas | unaffected | upregulated expression of interferon stimulated genes (ISGs) including MDA5, CXCL9, and CXCL10; also recorded: upregulated expression of known ISGs; also recorded: activated type I IFN signaling; also recorded: Activation of the IFN signaling | induced apoptosis; also recorded: killed via apoptosis | dose-dependently killed | ~12 h | induced necroptosis; also recorded: killed via necroptosis | induces formation of Z-RNAs | dose-dependently and efficiently killed | more efficiently than ADAR1i-13 and ADAR1i-120 | dose-dependently killed | killed one PDX melanoma cell line, WM3000, in a dose-dependent manner; also recorded: dose-dependently killed | Activation of the IFN signaling
